Each structure is given as a SMILES string. Where only a bound is given, the exact number is not on record here.

The term IC50 denotes the point on the concentration scale where inhibition reaches its midpoint.

In this assay the target is T1, human DP2 receptor (Homo sapiens, UniProt Q9Y5Y4).
T1 construct: expressed in transfected cells; host or cells: CHO-K1 FLP-In (Invitrogen, catalog no. R758-07), stably transfected
T1 sequence (Q9Y5Y4 1-395): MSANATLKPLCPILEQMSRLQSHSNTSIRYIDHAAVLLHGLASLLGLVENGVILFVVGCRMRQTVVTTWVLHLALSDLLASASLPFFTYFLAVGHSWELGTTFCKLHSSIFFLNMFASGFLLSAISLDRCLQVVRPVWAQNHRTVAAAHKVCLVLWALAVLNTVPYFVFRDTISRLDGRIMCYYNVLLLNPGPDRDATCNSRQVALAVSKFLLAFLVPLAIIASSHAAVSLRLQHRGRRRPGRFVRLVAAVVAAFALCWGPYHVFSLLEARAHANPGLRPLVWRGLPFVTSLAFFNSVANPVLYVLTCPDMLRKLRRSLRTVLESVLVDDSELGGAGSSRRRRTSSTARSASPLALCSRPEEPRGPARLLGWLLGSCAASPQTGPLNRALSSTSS
Description: Prostaglandin D2 binding inhibition assay (scintillation proximity assay, 3H PGD2, membranes of transfected CHO cells). The note with it: SPA, 5.5 nM 3H PGD2, CHO-K1 FLP-In human DP2 membranes; upper limit determinable 30 μM; read-out: IC50 ranges for inhibition of PGD2 binding to human DP2. The procedure: The ability of compounds to inhibit binding of prostaglandin D2 (PGD2) to the human DP2 receptor was measured using a scintillation proximity assay (SPA). Chinese Hamster Ovary FLP-In cell lines (CHO-K1 FLP-In, Invitrogen, catalog no. R758-07) were stably transfected with the human DP2 gene (Genebank: AY507142). Cell lines were grown in suspension in EX-CELL 302 CHO Serum-free medium (Sigma, catalog no. 14324C) supplemented with 1% Fetal Bovine Serum (Invitrogen no. 10099-141), 2 mM L-glutamine (Invitrogen, catalog no. 25030-081) and 0.5 mg/ml Hygromycin B (Invitrogen, catalog no. 10687-010). Cells were collected by centrifugation in a Beckman Coulter Allegra X-12R centrifuge at 150×g for 5 minutes at room temperature.
Membranes from transfected cells were isolated for binding assays. Cell pellets containing approximately 2×10^9 cells were resuspended in 35 ml of cold membrane homogenization buffer (10 mM Tris (Sigma, catalog no. T2663), 1 mM EDTA (Fluka BioChemika no. 03690), and 70 μl of protease inhibitor cocktail (Sigma, catalog no. P8340)). Cells were homogenized with 30 strokes of a dounce homogenizer (Kontes, catalog no. 885303-0040), and the solution centrifuged at 200×g for 10 minutes. The supernatant was transferred to a 50 ml Oakridge tube (Beckman, catalog no. 357000) and centrifuged in a Beckman Coulter Avanti J-26×PI centrifuge with a JA30.50 rotor at 81,000×g for 1 hour at 15° C. The pellet was resuspended in membrane storage buffer (50 mM Tris (Sigma, catalog no. T2663), 2.5 mM EDTA (Fluka BioChemika no. 03690), 5 mM magnesium chloride (Sigma, catalog no. M1028), 100 mg/ml sucrose (Sigma, catalog no. 50389) and a 1:500 dilution of protease inhibitor cocktail (Sigma, catalog no. P8340)) and the total protein was quantitated using a BCA protein measurement kit (Pierce, catalog no. 23225). Aliquots were frozen at −80° C. until used. Compounds were tested for their ability to inhibit PGD2 binding to the purified membranes. 5 μg of the purified membranes, 0.25 mg of wheat germ agglutinin PVT SPA beads (GE Healthcare, catalog no. RPNQ0060) and 5.5 nM of ^3H PGD2 (PerkinElmer, catalog no. NET-616) were mixed in assay buffer ((50 mM Tris (Sigma, catalog no. T2663), 10 mM magnesium chloride (Sigma, catalog no. M1028), 100 mM sodium chloride (Sigma, catalog no. S6546) and 0.1% bovine serum albumin (Sigma, catalog no. A2153)). Using a Multidrop bulk dispenser, 75 μl of the assay mixture was dispensed in Optiplates (PerkinElmer, catalog no. 6007299) containing the compounds to be tested. After a 60 minute incubation period at room temperature, the plates were read on a PerkinElmer Topcount NXT HTS, and individual wells were quantitated as counts per minute (CPM). Data were expressed as a percent of the difference between the maximum and minimum responses. IC50 values (the concentration of compound producing 50% of the maximal response) were determined using a two-parameter non-linear regression algorithm analyzed using CambridgeSoft Bioassay software. Table 2 gives the range of IC50 values for claimed compounds in the binding assay.
In general terms: SPA uses beads or plates that emit light when radiolabelled molecules are held near them.

Consider `O=C(O)Cn1c(=O)n(C2CCN(S(=O)(=O)c3ccc(Cl)cc3F)CC2)c2ncccc21` [Compound 30, 2-(3-(1-(4-chloro-2-fluorophenylsulfonyl)piperidin-4-yl)-2-oxo-2,3-dihydro-1H-imidazo[4,5-b]pyridin-1-yl)acetic acid], for which the IC50 is under 1000 nM.

Take `O=C(O)Cn1c(=O)n(C2CCN(S(=O)(=O)c3ccc(Cl)cc3Cl)CC2)c2ncccc21` [Compound 31, 2-(3-(1-(2,4-dichlorophenyl-sulfonyl)piperidin-4-yl)-2-oxo-2,3-dihydro-1H-imidazo[4,5-b]pyridin-1-yl)acetic acid]: the IC50 is under 1000 nM.

As to `O=C(O)Cn1c(=O)n(C2CCN(S(=O)(=O)c3cccc4ccccc34)CC2)c2ncccc21` [Compound 32, 2-(3-(1-(naphthalen-1-ylsulfonyl)piperidin-4-yl)-2-oxo-2,3-dihydro-1H-imidazo[4,5-b]pyridin-1-yl)acetic acid], the IC50 lay in the range of 1000 to 10000 nM.

On to `O=C(O)Cn1c(=O)n(C2CCN(S(=O)(=O)c3ccccc3OC(F)(F)F)CC2)c2ncccc21` [Compound 33, 2-(2-oxo-3-(1-(2-(trifluoromethoxy)phenylsulfonyl)piperidin-4-yl)-2,3-dihydro-1H-imidazo[4,5-b]pyridin-1-yl)acetic acid], for which the IC50 was in the range of 1000 to 10000 nM.

As to `O=C(O)Cn1c(=O)n(C2CCN(S(=O)(=O)C3CCCCC3)CC2)c2ncccc21` [Compound 34, 2-(3-(1-(cyclohexylsulfonyl)piperidin-4-yl)-2-oxo-2,3-dihydro-1H-imidazo [4,5-b]pyridin-1-yl)acetic acid], the IC50 fell in the range of 1000 to 10000 nM.

Turning to `O=C(O)Cn1c(=O)n(C2CCN(S(=O)(=O)c3ccc(Cl)c(Cl)c3)CC2)c2ncccc21` [Compound 35, 2-(3-(1-(3,4-dichlorophenyl-sulfonyl)piperidin-4-yl)-2-oxo-2,3-dihydro-1H-imidazo[4,5-b]pyridin-1-yl)acetic acid], the IC50 was 1000 to 10000 nM.

For `Cc1cc(F)ccc1S(=O)(=O)N1CCC(n2c(=O)n(CC(=O)O)c3cccnc32)CC1` [Compound 36, 2-(3-(1-(4-fluoro-2-methylphenyl-sulfonyl)piperidin-4-yl)-2-oxo-2,3-dihydro-1H-imidazo[4,5-b]pyridin-1-yl)acetic acid], the IC50 was under 1000 nM.

Take `O=C(O)Cn1c(=O)n(C2CCN(S(=O)(=O)c3cccc(Cl)c3)CC2)c2ncccc21` [Compound 37, 2-(3-(1-(3-chlorophenyl-sulfonyl)piperidin-4-yl)-2-oxo-2,3-dihydro-1H-imidazo[4,5-b]pyridin-1-yl)acetic acid]: the half-maximal inhibitory concentration (IC50) was in the range of 1000 to 10000 nM.

As to `Cc1cccc(S(=O)(=O)N2CCC(n3c(=O)n(CC(=O)O)c4cccnc43)CC2)c1` [Compound 38, 2-(2-oxo-3-(1-(m-tolylsulfonyl)piperidin-4-yl)-2,3-dihydro-1H-imidazo[4,5-b]pyridin-1-yl)acetic acid], the IC50 was 1000 to 10000 nM.

Consider `O=C(O)Cn1c(=O)n(C2CCN(S(=O)(=O)c3ccc(C(F)(F)F)cc3)CC2)c2ncccc21` [Compound 39, 2-(2-oxo-3-(1-(4-(trifluoromethyl)phenylsulfonyl)piperidin-4-yl)-2,3-dihydro-1H-imidazo[4,5-b]pyridin-1-yl)acetic acid], for which the half-maximal inhibitory concentration (IC50) lay in the range of 1000 to 10000 nM.

As for `O=C(O)Cn1c(=O)n(C2CCN(S(=O)(=O)c3ccc(F)c(F)c3)CC2)c2ncccc21` [Compound 40, 2-(3-(1-(3,4-difluorophenylsulfonyl)piperidin-4-yl)-2-oxo-2,3-dihydro-1H-imidazo[4,5-b]pyridin-1-yl)acetic acid], the IC50 fell in the range of 1000 to 10000 nM.

Regarding `O=C(O)Cn1c(=O)n(C2CCN(S(=O)(=O)c3cccc(C(F)(F)F)c3)CC2)c2ncccc21` [Compound 41, 2-(2-oxo-3-(1-(3-(trifluoromethyl)phenylsulfonyl)piperidin-4-yl)-2,3-dihydro-1H-imidazo[4,5-b]pyridin-1-yl)acetic acid], the IC50 lay within 1000 to 10000 nM.

For the molecule `O=C(O)Cn1c(=O)n(C2CCN(S(=O)(=O)c3ccc(OC(F)(F)F)cc3)CC2)c2ncccc21` [Compound 42, 2-(2-oxo-3-(1-(4-(trifluoromethoxy)phenylsulfonyl)piperidin-4-yl)-2,3-dihydro-1H-imidazo[4,5-b]pyridin-1-yl)acetic acid], the IC50 was in the range of 1000 to 10000 nM.

`CCS(=O)(=O)N1CCC(n2c(=O)n(CC(=O)O)c3cccnc32)CC1` [Compound 43, 2-(3-(1-(ethylsulfonyl)piperidin-4-yl)-2-oxo-2,3-dihydro-1H-imidazo[4,5-b]pyridin-1-yl)acetic acid]: the IC50 lay within 10000 to 30000 nM.

With `CCCS(=O)(=O)N1CCC(n2c(=O)n(CC(=O)O)c3cccnc32)CC1` [Compound 44, 2-(2-oxo-3-(1-(propylsulfonyl)piperidin-4-yl)-2,3-dihydro-1H-imidazo[4,5-b]pyridin-1-yl)acetic acid], the IC50 lay in the range of 1000 to 10000 nM.

`O=C(O)Cn1c(=O)n(C2CCN(S(=O)(=O)c3cccc(OC(F)(F)F)c3)CC2)c2ncccc21` [Compound 45, 2-(2-oxo-3-(1-(3-(trifluoromethoxy)phenylsulfonyl)piperidin-4-yl)-2,3-dihydro-1H-imidazo[4,5-b]pyridin-1-yl)acetic acid]: the IC50 was 1000 to 10000 nM.

As to `Cc1ccc(S(=O)(=O)N2CCC(n3c(=O)n(CC(=O)O)c4cccnc43)CC2)cc1` [Compound 46, 2-(2-oxo-3-(1-(p-tolylsulfonyl)piperidin-4-yl)-2,3-dihydro-1H-imidazo[4,5-b]pyridin-1-yl)acetic acid], the IC50 is 1000 to 10000 nM.

Regarding `COc1ccc(S(=O)(=O)N2CCC(n3c(=O)n(CC(=O)O)c4cccnc43)CC2)cc1OC` [Compound 47, 2-(3-(1-(3,4-dimethoxyphenyl-sulfonyl)piperidin-4-yl)-2-oxo-2,3-dihydro-1H-imidazo[4,5-b]pyridin-1-yl)acetic acid], the IC50 was 10000 to 30000 nM.

As to `CC(C)CS(=O)(=O)N1CCC(n2c(=O)n(CC(=O)O)c3cccnc32)CC1` [Compound 48, 2-(3-(1-(isobutylsulfonyl)piperidin-4-yl)-2-oxo-2,3-dihydro-1H-imidazo[4,5-b]pyridin-1-yl)acetic acid], the IC50 lay within 1000 to 10000 nM.

`O=C(O)Cn1c(=O)n(C2CCN(S(=O)(=O)c3cccc4cccnc34)CC2)c2ncccc21` [Compound 49, 2-(2-oxo-3-(1-(quinolin-8-ylsulfonyl)piperidin-4-yl)-2,3-dihydro-1H-imidazo[4,5-b]pyridin-1-yl)acetic acid]: the IC50 is under 1000 nM.

For `Cc1cc(C)c(S(=O)(=O)N2CCC(n3c(=O)n(CC(=O)O)c4cccnc43)CC2)c(C)c1` [Compound 50, 2-(3-(1-(mesitylsulfonyl)piperidin-4-yl)-2-oxo-2,3-dihydro-1H-imidazo[4,5-b]pyridin-1-yl)acetic acid], the IC50 is 1000 to 10000 nM.

As to `O=C(O)Cn1c(=O)n(C2CCN(S(=O)(=O)c3ccc(F)cc3Cl)CC2)c2ncccc21` [Compound 51, 2-(3-(1-(2-chloro-4-fluorophenyl-sulfonyl)piperidin-4-yl)-2-oxo-2,3-dihydro-1H-imidazo[4,5-b]pyridin-1-yl)acetic acid], the IC50 was under 1000 nM.

Consider `CC(C)S(=O)(=O)N1CCC(n2c(=O)n(CC(=O)O)c3cccnc32)CC1` [Compound 52, 2-(3-(1-(isopropylsulfonyl)piperidin-4-yl)-2-oxo-2,3-dihydro-1H-imidazo[4,5-b]pyridin-1-yl)acetic acid], for which the half-inhibitory concentration (IC50) lay within 1000 to 10000 nM.

The values are drawn from patent US20110190336A1, “AZABENZIMIDAZOLONES” (CARA THERAPEUTICS, INC., priority 2008, published 2011).
